The record followed here is ChEMBL document CHEMBL1145374, “Discovery of para-alkylthiophenoxyacetic acids as a novel series of potent and selective PPARdelta agonists” (Bioorg Med Chem Lett, 2007).

Structures are written as SMILES. pEC50: −log10 of the molar value.

For series [1], the target named is T1, Peroxisome proliferator-activated receptor gamma (Homo sapiens, UniProt P37231).
T1 sequence (P37231 whole entry): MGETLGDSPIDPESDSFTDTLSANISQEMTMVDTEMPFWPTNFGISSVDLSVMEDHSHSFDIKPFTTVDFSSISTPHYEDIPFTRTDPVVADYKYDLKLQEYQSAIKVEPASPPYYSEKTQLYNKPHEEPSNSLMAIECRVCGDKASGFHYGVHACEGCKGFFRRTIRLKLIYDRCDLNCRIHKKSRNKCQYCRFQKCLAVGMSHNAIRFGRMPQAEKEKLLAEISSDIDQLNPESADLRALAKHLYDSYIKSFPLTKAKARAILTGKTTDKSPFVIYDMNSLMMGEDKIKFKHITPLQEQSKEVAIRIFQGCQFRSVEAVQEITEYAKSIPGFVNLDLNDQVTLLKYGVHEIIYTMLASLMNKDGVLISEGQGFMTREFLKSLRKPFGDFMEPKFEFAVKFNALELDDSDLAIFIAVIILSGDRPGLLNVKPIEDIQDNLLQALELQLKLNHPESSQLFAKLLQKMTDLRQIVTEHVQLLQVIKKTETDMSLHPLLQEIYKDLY
Briefly: Activity at human PPARgamma receptor by cell based transactivation assay.

Series [2] deals with T2, Peroxisome proliferator-activated receptor delta (Homo sapiens, UniProt Q03181).
T2 sequence (Q03181 whole entry): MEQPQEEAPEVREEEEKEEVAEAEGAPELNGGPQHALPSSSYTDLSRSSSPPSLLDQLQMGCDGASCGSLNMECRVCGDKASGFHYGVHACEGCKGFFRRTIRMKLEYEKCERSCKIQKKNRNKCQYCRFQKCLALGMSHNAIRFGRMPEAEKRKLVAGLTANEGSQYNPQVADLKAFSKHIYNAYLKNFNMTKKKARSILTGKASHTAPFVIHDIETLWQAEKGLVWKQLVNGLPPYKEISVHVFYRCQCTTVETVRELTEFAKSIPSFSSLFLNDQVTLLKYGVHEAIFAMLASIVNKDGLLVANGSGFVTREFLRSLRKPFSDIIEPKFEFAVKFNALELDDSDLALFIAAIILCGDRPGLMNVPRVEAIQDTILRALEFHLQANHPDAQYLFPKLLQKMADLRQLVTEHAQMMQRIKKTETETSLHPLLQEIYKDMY
The experiment in a line: Agonist activity at human PPARdelta receptor by cell based transactivation assay. Format: functional.

The target of series [3] is T3, Peroxisome proliferator-activated receptor alpha (Homo sapiens, UniProt Q07869).
T3 sequence (Q07869 whole entry): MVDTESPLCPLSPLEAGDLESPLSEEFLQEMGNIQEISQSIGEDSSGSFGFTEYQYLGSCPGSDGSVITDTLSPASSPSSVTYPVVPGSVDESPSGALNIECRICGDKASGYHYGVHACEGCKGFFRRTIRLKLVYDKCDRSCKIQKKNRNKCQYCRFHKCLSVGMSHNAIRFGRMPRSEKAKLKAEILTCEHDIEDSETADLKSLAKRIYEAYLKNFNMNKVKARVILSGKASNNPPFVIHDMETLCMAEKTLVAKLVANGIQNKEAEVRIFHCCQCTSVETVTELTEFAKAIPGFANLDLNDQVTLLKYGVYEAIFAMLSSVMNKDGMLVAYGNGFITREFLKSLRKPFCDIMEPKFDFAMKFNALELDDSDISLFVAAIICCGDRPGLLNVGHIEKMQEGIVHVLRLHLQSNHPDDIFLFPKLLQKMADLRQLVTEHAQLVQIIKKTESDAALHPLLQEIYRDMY
Briefly: Activity at human PPARalpha receptor by cell based transactivation assay.

A short description of series [4]: Half life in rat. It is filed as ADME, organism-based. Conditions: in vivo.
Series [5] is described as follows: Oral bioavailability in rat. Format: ADME, organism-based. Conditions: in vivo.
A short description of series [6]: AUC in rat. Format: ADME, organism-based. The following applies: plasma.
Series [7] is described as follows: Tmax in rat. Format: ADME, organism-based. Conditions: in vivo.
The nature of series [8]: Cmax in rat. Format: ADME, organism-based. Conditions: in vivo.

Consider `CCOC(COc1ccc(C(F)(F)F)cc1)CSc1ccc(OCC(=O)O)c(C)c1` (stereo not given), for which the pEC50 (usually −log10 of the EC50, conventionally taken in molar units) in series [1] is under 6.00; in series [2], 8.47; in series [3], under 6.00.
Turning to `Cc1cc(SCC(C)COc2ccc(C(F)(F)F)cc2)ccc1OCC(=O)O` (stereo not given), the values for the pEC50 in series [1], in series [2] and in series [3] were under 6.00, 8.13 and under 6.00, respectively.
For the compound `CCOCC(COc1ccc(C(F)(F)F)cc1)CSc1ccc(OCC(=O)O)c(C)c1` (stereo not given), the pEC50 in series [1] and in series [3] was under 6.00 throughout.
Consider `COc1ccc(OC(COc2ccc(C(F)(F)F)cc2)CSc2ccc(OCC(=O)O)c(C)c2)cc1` (stereo not given), for which the pEC50 in series [1] and in series [3] was under 6.00 throughout.
As for `Cc1cc(SCC(COc2ccc(C(F)(F)F)cc2)OCc2ccccc2)ccc1OCC(=O)O` (stereo not given), the pEC50 in series [1] and in series [3] was under 6.00 each time.
In the case of `CCO[C@H](COc1ccc(C(F)(F)F)cc1)CSc1ccc(OCC(=O)O)c(C)c1`, the pEC50 in series [1] is under 6.00; in series [2], 8.72; in series [3], under 6.00.
Turning to `Cc1cc(SCC(COc2ccc(C(F)(F)F)cc2)OCC(=O)O)ccc1OCC(=O)O` (stereo not given), the negative logarithm of the EC50 (pEC50) in series [1] and in series [3] was under 6.00 each time.
As for `CC[C@H](COc1ccc(C(F)(F)F)cc1)CSc1ccc(OCC(=O)O)c(C)c1`, the half-life (in general, the time needed for the level to fall by half in the phase considered) in series [4] is 8.2 h. In series [5], the bioavailability (commonly the share of a dose that reaches the circulation, judged against a reference dose that is usually intravenous) came to 84%. Further, the area under the curve (AUC) (in general, concentration integrated over time) in series [6] was determined as 13600 ng·h/mL. In series [7], the time of peak concentration (Tmax) (commonly the time at which the peak concentration occurs) came out at 0.5 h. In addition, the Cmax – broadly, the peak of the concentration-time curve – in series [8] was 8870 ng/mL. The pEC50 is under 6.00 in series [1], 10.52 in series [2] and under 6.00 in series [3].
In the case of `CCOC(CCc1ccc(C(F)(F)F)cc1)CSc1ccc(OCC(=O)O)c(C)c1` (stereo not given), the pEC50 in series [1] and in series [3] was under 6.00 throughout.
`C=CCOC(COc1ccc(C(F)(F)F)cc1)CSc1ccc(OCC(=O)O)c(C)c1` (stereo not given): the pEC50 in series [1] was under 6.00; in series [2] it was 8.41; in series [3], under 6.00.
For `CCC(COc1ccc(C(F)(F)F)cc1)CSc1ccc(OCC(=O)O)c(C)c1` (stereo not given), the negative-log EC50 (pEC50) in series [1] was under 6.00; in series [2] it was 10.22; in series [3], under 6.00.
`CCCC(=O)c1ccc(OC(COc2ccc(C(F)(F)F)cc2)CSc2ccc(OCC(=O)O)c(C)c2)cc1` (stereo not given): the negative logarithm of the EC50 (pEC50) in series [1] and in series [3] was under 6.00 in each case.
`Cc1cc(SCC(O)COc2ccc(C(F)(F)F)cc2)ccc1OCC(=O)O` (stereo not given): the pEC50 in series [1] and in series [3] was under 6.00 each time.
`CCO[C@@H](COc1ccc(C(F)(F)F)cc1)CSc1ccc(OCC(=O)O)c(C)c1`: the pEC50 was under 6.00 in series [1], 7.60 in series [2] and under 6.00 in series [3].
Regarding `CCO[C@H](COc1ccc(C(F)(F)F)cc1)C[S+]([O-])c1ccc(OCC(=O)O)c(C)c1` (stereo not given in full), the figures for the pEC50 in series [1], in series [2] and in series [3] were under 6.00, under 5.52 and under 6.00, respectively.
As for `CCCOC(COc1ccc(C(F)(F)F)cc1)CSc1ccc(OCC(=O)O)c(C)c1` (stereo not given), the pEC50 in series [1] and in series [3] was under 6.00 each time.
`CCOC(COc1ccc(C(F)(F)F)cc1)COc1ccc(OCC(=O)O)c(C)c1` (stereo not given): the pEC50 in series [1] and in series [3] was under 6.00 in each case.
As for `COCOC(COc1ccc(C(F)(F)F)cc1)CSc1ccc(OCC(=O)O)c(C)c1` (stereo not given), the pEC50 in series [1] and in series [3] was under 6.00 in each case.
`CSCOC(CCc1ccc(C(F)(F)F)cc1)CSc1ccc(OCC(=O)O)c(C)c1` (stereo not given): the results for the pEC50 in series [1], in series [2] and in series [3] were under 6.00, 7.82 and under 6.00, respectively.
With `COC(COc1ccc(C(F)(F)F)cc1)CSc1ccc(OCC(=O)O)c(C)c1` (stereo not given), the pEC50 in series [1] was under 6.00; in series [2], 7.73; in series [3] it was under 6.00.
As to `COCO[C@H](COc1ccc(C(F)(F)F)cc1)CSc1ccc(OCC(=O)O)c(C)c1`, the negative-log EC50 (pEC50) in series [1] and in series [3] was under 6.00 each time.
For the compound `COCO[C@@H](COc1ccc(C(F)(F)F)cc1)CSc1ccc(OCC(=O)O)c(C)c1`, the pEC50 was under 6.00 in series [1], 7.15 in series [2] and under 6.00 in series [3].
Regarding `CCCCOC(COc1ccc(C(F)(F)F)cc1)CSc1ccc(OCC(=O)O)c(C)c1` (stereo not given), the pEC50 is under 6.00 in series [1], 8.15 in series [2] and under 6.00 in series [3].
As for `Cc1cc(SCC(COc2ccc(C(F)(F)F)cc2)COc2ccc(C(F)(F)F)cc2)ccc1OCC(=O)O`, the pEC50 in series [1] and in series [3] was under 6.00 each time.
